Laboratory results taken from patent US20050090402A1, “Use of defined copolymers as adjuvants and agents in the agrotechnical domain” (priority 2001, published 2005).

Key:
Assay type in all cases: in vivo
Conditions in all cases: bentazone 0.125 kg/ha, no adjuvant, 100 = complete destruction, 0 = no damage
[1] = test system: white goosefoot (Chenopodium album; CHEAL); experiment: Herbicidal efficacy of bentazone tank mixes, greenhouse post-emergence, white goosefoot
Method: (§1) The copolymers shown in Table 1 were applied by the tank mix method together with Basagran (480 g/l bentazone). The application rate per ha was 0.125 kg of bentazone and 2, 1.0 and 0.5 kg of a.i./ha copolymer or comparative surfactant Wettol LF 700 (alcohol alkoxylate). The herbicidal effect was assessed in a greenhouse experiment. The test plants used were soybeans (Glycine max; GLXMA), Chinese hemp (Abutilon theophrasti; ABUTH), white goosefoot (Chenopodium album; CHEAL) and ladysthumb (Polygonum persicaria; POLPE). These plants were either sown separately for each species or first grown separately as seedlings and transplanted into the experimental containers a few days before the treatment. The experimental containers used were plastic pots containing loamy sand and approximately 3.0% of humus as substrate. […] The application rate for the post-emergence treatment was 0.125 kg a.i./ha bentazone and 2.0, 1.0 or 0.5 kg a.i./ha copolymer or comparative surfactant.
(§2) The test period extended over 2 to 4 weeks. During this time, the plant species were kept specifically at night-time temperatures above 14° C. and day-time temperatures between 20 and 31° C., tended, and their response to the individual treatments was evaluated.
(§3) Evaluation was done using a scale from 0 to 100. […]

[2] = test system: Chinese hemp (Abutilon theophrasti; ABUTH); experiment: Herbicidal efficacy of bentazone tank mixes, greenhouse post-emergence, Chinese hemp
Method: as §1, §2, §3

[3] = test system: ladysthumb (Polygonum persicaria; POLPE); experiment: Herbicidal efficacy of bentazone tank mixes, greenhouse post-emergence, ladysthumb
Method: as §1, §2, §3

[4] = test system: soybeans (Glycine max; GLXMA); experiment: Herbicidal efficacy of bentazone tank mixes, greenhouse post-emergence, soybeans
Method: as §1, §2, §3

CC(C)N1C(=O)c2ccccc2NS1(=O)=O [Bentazone, bentazone]
herbicidal effect CHEAL (scale 0 to 100) [1]: 9 | herbicidal effect ABUTH (scale 0 to 100) [2]: 64 | herbicidal effect POLPE (scale 0 to 100) [3]: 86 | herbicidal effect GLXMA (scale 0 to 100) [4]: 0
